Test results: ChEMBL document CHEMBL5370560, “Isolation of Anti-SARS-CoV-2 Natural Products Extracted from Mentha canadensis and the Semi-synthesis of Antiviral Derivatives” (J Nat Prod, 2023)
Active and inactive are the calls of the source. The rule behind the calls is not given here.

Tests used:
[1] = test system: SARS-CoV-2; assay: (§1) Antiviral activity against SARS-CoV-2 Delta infected in African green monkey Vero E6 cells assessed as inhibition of plaque formation at 5 uM incubated for 1 hr followed by virus-drug mixture washout and further addition of media without compound for 5 to 7 days by crystal violet staining based assay relative to control; assay type: functional, Severe acute respiratory syndrome coronavirus 2; conditions: for inhibition at 5 µM: Severe acute respiratory syndrome coronavirus 2, Delta, Vero C1008
[2] = Cytotoxicity against African green monkey Vero E6 cells assessed as reduction in cell viability incubated for 48 hrs by MTT assay; assay type: toxicity, cell-based, Vero C1008; conditions: chlorocebus sabaeus
[3] = test system: SARS-CoV-2; assay: as §1, with “at 50” for “at 5”; assay type: functional, Severe acute respiratory syndrome coronavirus 2; conditions: for inhibition at 50 µM: Severe acute respiratory syndrome coronavirus 2, Delta, Vero C1008
[4] = test system: SARS-CoV-2; assay: as §1, with “at 0.5” for “at 5”, “assay” for “assay relative to control”; assay type: functional, organism-based; conditions: Severe acute respiratory syndrome coronavirus 2
[5] = test system: SARS-CoV-2; assay: as §1, with “SARS-CoV-2 Omicron BA.1” for “SARS-CoV-2 Delta”, “at 50” for “at 5”; assay type: functional, Severe acute respiratory syndrome coronavirus 2; conditions: for inhibition at 50 µM: Severe acute respiratory syndrome coronavirus 2, Omicron BA.1, Vero C1008
[6] = test system: SARS-CoV-2; assay: as §1, with “SARS-CoV-2 Omicron BA.1” for “SARS-CoV-2 Delta”, “at 0.5” for “at 5”; assay type: functional, Severe acute respiratory syndrome coronavirus 2; conditions: for inhibition at 0.5 µM: Severe acute respiratory syndrome coronavirus 2, Omicron BA.1, Vero C1008
[7] = test system: SARS-CoV-2; assay: as §1, with “Omicron BA.1” for “Delta”; assay type: functional, Severe acute respiratory syndrome coronavirus 2; conditions: for inhibition at 5 µM: Severe acute respiratory syndrome coronavirus 2, Omicron BA.1, Vero C1008
[8] = test system: SARS-CoV-2; assay: as §1, with “SARS-CoV-2 Omicron BA.1” for “SARS-CoV-2 Delta”, “at 0.5” for “at 5”, “assay” for “assay relative to control”; assay type: functional, organism-based; conditions: Severe acute respiratory syndrome coronavirus 2
[9] = test system: SARS-CoV-2; assay: Antiviral activity against SARS-CoV-2 Delta infected in African green monkey Vero E6 cells assessed as inhibition of plaque formation incubated for 1 hr followed by virus-drug mixture washout and further addition of media without compound for 5 to 7 days by crystal violet staining based assay; assay type: functional, organism-based; conditions: Severe acute respiratory syndrome coronavirus 2, Delta, Vero C1008
[10] = test system: SARS-CoV-2; assay: (§2) Synergistic antiviral activity against SARS-CoV-2 Omicron BA.1 infected in Vero E6 cells assessed as reduction in plaque formation by measuring combination index at ED50 incubated for 1 hr in presence of ivermectin followed by virus-drug mixture washout and further addition of media without compound for 5 to 7 days by Chou-Talalay method; assay type: functional, Severe acute respiratory syndrome coronavirus 2
[11] = test system: SARS-CoV-2; assay: as §2, with “Delta” for “Omicron BA.1”; assay type: functional, Severe acute respiratory syndrome coronavirus 2
[12] = target: Spike glycoprotein (Severe acute respiratory syndrome coronavirus 2) (UniProt P0DTC2); assay: Binding affinity to NTA chip immobilised recombinant SARS-CoV-2 Delta spike protein RBD at 50 uM measured for 500 secs by SPR analysis; conditions: time 500.0 sec
[13] = test system: SARS-CoV-2; assay: as §1, with “at 50” for “at 5”, “assay” for “assay relative to control”; assay type: functional, organism-based; conditions: Severe acute respiratory syndrome coronavirus 2
[14] = test system: SARS-CoV-2; assay: (§3) Antiviral activity against SARS-CoV-2 Omicron BA.1 infected in African green monkey Vero E6 cells assessed as inhibition of plaque formation incubated for 1 hr followed by virus-drug mixture washout and further addition of media without compound for 5 to 7 days by crystal violet staining based assay; assay type: functional, organism-based; conditions: Severe acute respiratory syndrome coronavirus 2, Omicron BA.1, Vero C1008
[15] = test system: SARS-CoV-2; assay: as §1, with “at 100” for “at 5”; assay type: functional; conditions: Severe acute respiratory syndrome coronavirus 2, Delta, Vero C1008
[16] = test system: SARS-CoV-2; assay: as §1, with “SARS-CoV-2 Omicron BA.1” for “SARS-CoV-2 Delta”, “at 100” for “at 5”; assay type: functional; conditions: Severe acute respiratory syndrome coronavirus 2, Omicron BA.1, Vero C1008
[17] = test system: SARS-CoV-2; assay: as §1, with “assay” for “assay relative to control”; assay type: functional, organism-based; conditions: Severe acute respiratory syndrome coronavirus 2
[18] = test system: SARS-CoV-2; assay: Antiviral activity against SARS-CoV-2 infected in African green monkey Vero E6 cells preincubated for 1 hr followed by addition of fresh medium containing compounds and measured after 24 hrs by qRT-PCR analysis; assay type: functional, organism-based; conditions: Severe acute respiratory syndrome coronavirus 2, Vero C1008
[19] = test system: SARS-CoV-2; assay: Synergistic antiviral activity against SARS-CoV-2 Omicron BA.1 infected in Vero E6 cells incubated for 1 hr in presence of ivermectin followed by virus-drug mixture washout and further addition of media without compound for 5 to 7 days by crystal violet staining based assay; assay type: functional, organism-based; conditions: Severe acute respiratory syndrome coronavirus 2
[20] = test system: SARS-CoV-2; assay: Synergistic antiviral activity against SARS-CoV-2 Delta infected in Vero E6 cells incubated for 1 hr in presence of ivermectin followed by virus-drug mixture washout and further addition of media without compound for 5 to 7 days by crystal violet staining based assay; assay type: functional, organism-based; conditions: Severe acute respiratory syndrome coronavirus 2
[21] = test system: SARS-CoV-2; assay: as §1, with “at 0.5” for “at 5”; assay type: functional, Severe acute respiratory syndrome coronavirus 2
[22] = test system: SARS-CoV-2; assay: as §3, with “formation at 50 uM” for “formation”; assay type: functional, organism-based; conditions: Severe acute respiratory syndrome coronavirus 2

| Compound | CC50 at 48 h [2] | inhibition at 50 µM [3] | inhibition [4] | inhibition at 50 µM [5] | inhibition at 5 µM [7] | inhibition [17] | further results |
| --- | --- | --- | --- | --- | --- | --- | --- |
| CCCCCCNC(=O)[C@@H](Cc1ccc(O)c(O)c1)OC(=O)/C=C/c1ccc(O)c(O)c1 | > 100 µM | 95% | inactive | 77% | 21% |  | inhibition at 5 µM [1]: 23%; inhibition at 0.5 µM [6]: 21% |
| O=C(/C=C/c1ccc(O)c(O)c1)O[C@H](Cc1ccc(O)c(O)c1)C(=O)NCc1ccccc1 | > 100 µM | 57% | inactive | 58% | 17% |  | inhibition at 5 µM [1]: 18%; inhibition [8]: inactive |
| COC(=O)[C@@H](Cc1ccc(O)c(O)c1)OC(=O)/C=C/c1ccc(O)c(O)c1 [METHYL ROSMARINATE] | > 1000 µM |  |  |  |  |  | IC50 [9]: 88.9 µM; CI [10]: 1.67; CI [11]: 1.74; Activity [12]: inactive; inhibition [13]: Active; IC50 [14]: 57 µM |
| O=C(/C=C/c1ccc(O)c(O)c1)O[C@H](Cc1ccc(O)c(O)c1)C(=O)O [ROSMARINIC ACID] |  | 7% |  | 33% |  |  | inhibition at 100 µM [15]: 9%; inhibition at 100 µM [16]: 40% |
| C#CCNC(=O)[C@@H](Cc1ccc(O)c(O)c1)OC(=O)/C=C/c1ccc(O)c(O)c1 | > 100 µM | 30% | inactive | 26% | 17% | inactive | inhibition at 0.5 µM [6]: 17% |
| O=C(O)/C=C/c1ccc(O)c(O)c1 [CAFFEIC ACID] |  | 23% |  | 36% |  |  | inhibition at 100 µM [15]: 29%; inhibition at 100 µM [16]: 42% |
| O=C(O)[C@H](O)Cc1ccc(O)c(O)c1 |  | 19% |  | 40% |  |  | inhibition at 100 µM [15]: 19%; EC50 [18]: 0.97 µM; inhibition at 100 µM [16]: 40% |
| COc1cc(C(=O)O)cc(OC)c1O |  |  |  |  |  |  | Activity [19]: inactive; Activity [20]: inactive; inhibition [13]: Active |
| O=C(/C=C/c1ccc(O)c(O)c1)O[C@H](Cc1ccc(O)c(O)c1)C(=O)NCc1ccco1 | > 100 µM | 20% | inactive | 66% | 29% | inactive | inhibition [8]: inactive |
| COc1c(O)c(OC)c2oc(-c3ccc(O)cc3)cc(=O)c2c1O |  |  |  |  |  |  | inhibition [13]: Active |
| O=C(/C=C/c1ccc(O)c(O)c1)O[C@H](Cc1ccc(O)c(O)c1)C(=O)N1CCOCC1 | > 100 µM | 8% | inactive | 23% | 19% | inactive | inhibition [8]: inactive |
| CCc1cccc(NC(=O)[C@@H](Cc2ccc(O)c(O)c2)OC(=O)/C=C/c2ccc(O)c(O)c2)c1 | 50.7 µM |  |  |  |  |  | IC50 [9]: 12.6 µM; inhibition (INH) [1]: 53%; inhibition (INH) [3]: 100%; inhibition (INH) [21]: 14%; inhibition (INH) [5]: 100%; inhibition (INH) [6]: 24%; inhibition (INH) [7]: 57%; Activity [12]: inactive; IC50 [14]: 2.7 µM |
| CCCCCCCCCCCCNC(=O)[C@@H](Cc1ccc(O)c(O)c1)OC(=O)/C=C/c1ccc(O)c(O)c1 | 17.5 µM |  |  |  |  |  | IC50 [9]: 0.93 µM; inhibition (INH) [1]: 78%; inhibition (INH) [21]: 15%; inhibition (INH) [6]: 17%; inhibition [22]: inactive; inhibition (INH) [7]: 54%; Activity [12]: inactive; inhibition [13]: inactive; IC50 [14]: 0.77 µM |
| O=C(/C=C/c1ccc(O)c(O)c1)O[C@H](Cc1ccc(O)c(O)c1)C(=O)NCCCCCCCl | > 100 µM | 75% | inactive | 66% | 29% |  | inhibition at 5 µM [1]: 18%; inhibition at 0.5 µM [6]: 14% |
| O=C(/C=C/c1ccc(O)c(O)c1)O[C@H](Cc1ccc(O)c(O)c1)C(=O)N1CCCCC1 | > 100 µM | 33% | inactive | 67% | 38% | inactive | inhibition at 0.5 µM [6]: 24% |
| COCCNC(=O)[C@@H](Cc1ccc(O)c(O)c1)OC(=O)/C=C/c1ccc(O)c(O)c1 | > 100 µM | 23% | inactive | 29% | 13% | inactive | inhibition [8]: inactive |
